IC50, inhibition and Activity data for four compounds are collected here from ChEMBL document CHEMBL5038665, “Identification of the Benzoimidazole Compound as a Selective FLT3 Inhibitor by Cell-Based High-Throughput Screening of a Diversity Library” (J Med Chem, 2022).

Calls of active or inactive are those of the source. The rule behind the calls is not given here. Some results are limits rather than exact numbers.

Series [1] is described as follows: Antiproliferative activity against mouse BaF3 cells expressing wild type FLT3 assessed as reduction in cell viability measured after 72 hrs by MTS assay. Format: toxicity, cell-based. In general terms: Tetrazolium assays rely on reduction of a dye to a coloured formazan, in cell work by metabolically active cells.
Series [2] is described as follows: Antiproliferative activity against human ML-1 cells expressing wild type FLT3 assessed as reduction in cell viability measured after 72 hrs by MTS assay. The series is classed as functional, cell-based. The conditions noted are these: ML1, 72 h.
The test system of another series is MOLM-13. The experiment in a line: Antiproliferative activity against human MOLM-13 cells harboring FLT3-ITD mutant assessed as reduction in cell viability measured after 72 hrs by MTS assay. The series is classed as functional, cell-based. The conditions noted are these: MOLM-13, 72 h.
The subject of another series is MV4-11. The experiment in a line: Antiproliferative activity against human MV4-11 cells harboring FLT3-ITD mutant assessed as reduction in cell viability measured after 72 hrs ny MTS assay. The conditions noted are these: MV4-11, 72 h. Format: functional, cell-based.
Series [3] in a line: Antiproliferative activity against mouse Ba/F3 FLT3-ITD cells assessed as reduction in cell viability measured after 72 hrs by MTS assay. The series is classed as functional, cell-based.
In the next series the test system is HL-60. Description: Antiproliferative activity against human HL-60 cells expressing wild type FLT3 assessed as reduction in cell viability measured after 72 hrs by MTS assay. The series is classed as functional, cell-based. The following applies: HL-60, 72 h.
Series [4] deals with T1, Receptor-type tyrosine-protein kinase FLT3 (Homo sapiens, UniProt P36888).
T1 sequence (P36888 whole entry): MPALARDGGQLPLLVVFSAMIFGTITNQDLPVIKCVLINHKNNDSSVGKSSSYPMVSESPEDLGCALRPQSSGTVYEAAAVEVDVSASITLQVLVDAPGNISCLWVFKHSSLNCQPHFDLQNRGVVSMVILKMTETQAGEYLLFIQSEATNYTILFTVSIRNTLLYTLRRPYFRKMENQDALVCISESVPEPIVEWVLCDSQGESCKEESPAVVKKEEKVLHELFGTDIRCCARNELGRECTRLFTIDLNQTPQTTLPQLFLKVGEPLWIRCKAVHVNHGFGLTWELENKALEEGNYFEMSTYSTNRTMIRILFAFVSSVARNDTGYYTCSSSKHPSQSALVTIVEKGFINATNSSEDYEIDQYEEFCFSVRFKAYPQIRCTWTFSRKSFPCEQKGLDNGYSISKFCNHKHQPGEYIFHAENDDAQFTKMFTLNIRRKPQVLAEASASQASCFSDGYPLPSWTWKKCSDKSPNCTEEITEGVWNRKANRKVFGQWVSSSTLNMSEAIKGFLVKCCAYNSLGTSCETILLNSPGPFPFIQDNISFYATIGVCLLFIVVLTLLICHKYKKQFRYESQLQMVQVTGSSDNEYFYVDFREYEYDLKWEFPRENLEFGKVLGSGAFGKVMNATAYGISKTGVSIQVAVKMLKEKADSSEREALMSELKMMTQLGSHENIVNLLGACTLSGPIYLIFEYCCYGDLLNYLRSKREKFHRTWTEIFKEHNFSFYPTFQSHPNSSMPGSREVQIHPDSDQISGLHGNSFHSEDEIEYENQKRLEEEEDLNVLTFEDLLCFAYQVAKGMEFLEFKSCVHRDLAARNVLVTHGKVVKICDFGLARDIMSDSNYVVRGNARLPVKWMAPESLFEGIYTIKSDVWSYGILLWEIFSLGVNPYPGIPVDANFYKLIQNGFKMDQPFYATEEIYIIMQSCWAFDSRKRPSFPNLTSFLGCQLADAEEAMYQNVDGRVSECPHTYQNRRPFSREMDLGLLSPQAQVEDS
The experiment in a line: Inhibition of FLT3 (unknown origin).

The target in series [5] is Receptor-type tyrosine-protein kinase FLT3 (Homo sapiens) (UniProt P36888). The experiment in a line: Inhibition of FLT3 phosphorylation in human MOLM-13 cells assessed as reduction in phosphorylated FLT3 level at 0.3 to 100 nM by sandwich ELISA assay. Format: cell-based. The conditions noted are these: dose 0.3-100 nM. Background: ELISA stands for enzyme-linked immunosorbent assay.

The next series deals with Monocyte. Description: Antiproliferative activity against human peripheral blood monocyte cells assessed as cell growth inhibition at 6 to 200 uM measured after 72 hrs by MTS assay. Format: toxicity, cell-based. The following applies: dose 6-200 µM.
Series [6] deals with T2, Receptor-type tyrosine-protein kinase FLT3 (Mus musculus) (UniProt Q00342).
T2 sequence (whole entry): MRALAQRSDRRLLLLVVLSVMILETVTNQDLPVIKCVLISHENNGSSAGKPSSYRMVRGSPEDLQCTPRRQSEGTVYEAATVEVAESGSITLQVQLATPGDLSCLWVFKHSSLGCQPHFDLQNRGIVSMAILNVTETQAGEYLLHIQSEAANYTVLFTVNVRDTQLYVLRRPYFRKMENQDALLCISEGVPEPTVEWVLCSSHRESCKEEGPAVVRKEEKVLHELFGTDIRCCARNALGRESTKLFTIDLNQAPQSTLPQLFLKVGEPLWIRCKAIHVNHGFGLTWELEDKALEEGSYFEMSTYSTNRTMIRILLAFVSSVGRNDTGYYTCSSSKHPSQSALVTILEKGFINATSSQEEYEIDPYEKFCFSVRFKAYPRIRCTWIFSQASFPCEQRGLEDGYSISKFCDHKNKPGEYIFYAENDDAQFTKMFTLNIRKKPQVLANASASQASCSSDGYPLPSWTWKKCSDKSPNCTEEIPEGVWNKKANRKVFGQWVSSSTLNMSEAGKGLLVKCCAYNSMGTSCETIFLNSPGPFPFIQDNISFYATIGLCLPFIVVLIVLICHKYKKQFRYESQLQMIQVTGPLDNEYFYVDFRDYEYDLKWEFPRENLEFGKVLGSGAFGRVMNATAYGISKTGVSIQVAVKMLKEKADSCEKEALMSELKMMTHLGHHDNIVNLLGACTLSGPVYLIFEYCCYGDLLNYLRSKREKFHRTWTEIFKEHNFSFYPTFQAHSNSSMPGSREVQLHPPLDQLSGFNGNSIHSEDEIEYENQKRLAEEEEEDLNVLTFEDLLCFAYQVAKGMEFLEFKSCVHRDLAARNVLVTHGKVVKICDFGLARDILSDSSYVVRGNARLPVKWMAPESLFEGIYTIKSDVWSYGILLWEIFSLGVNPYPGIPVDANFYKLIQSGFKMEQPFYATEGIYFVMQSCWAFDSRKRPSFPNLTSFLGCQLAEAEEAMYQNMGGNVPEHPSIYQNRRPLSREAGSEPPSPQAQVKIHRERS
Description: Inhibition of FLT3 phosphorylation in mouse Ba/F3 FLT3-ITD cells assessed as reduction in phosphorylated FLT3 level measured after 12 hrs by western blot analysis. Format: cell-based. Background: A western blot detects proteins with antibodies after separation by electrophoresis.

The target in series [7] is Fibroblast growth factor receptor 1 (Homo sapiens, UniProt P11362). Description: Inhibition of FGFR1 (unknown origin).
Series [8] has as its target Receptor-type tyrosine-protein kinase FLT3 (Homo sapiens) (UniProt P36888). Description: Inhibition of FLT3 phosphorylation in human MV4-11 cells assessed as reduction in phosphorylated FLT3 level at 0.3 to 100 nM by sandwich ELISA assay. Format: cell-based. The conditions noted are these: dose 0.3-100 nM.
Series [9] addresses T2, Receptor-type tyrosine-protein kinase FLT3 (Mus musculus). Description: Inhibition of FLT3 phosphorylation in mouse Ba/F3 FLT3-ITD cells assessed as reduction in phosphorylated FLT3 level at 0.3 to 100 nM by sandwich ELISA assay. Format: cell-based. The conditions noted are these: dose 0.3-100 nM.
Series [10] deals with Receptor-type tyrosine-protein kinase FLT3 (Homo sapiens) (UniProt P36888). The experiment in a line: Inhibition of FLT3 phosphorylation in human MV4-11 cells assessed as reduction in phosphorylated FLT3 level measured after 12 hrs by western blot analysis. Format: cell-based.
Series [11] concerns the target Mast/stem cell growth factor receptor Kit (Homo sapiens, UniProt P10721). The experiment in a line: Inhibition of KIT (unknown origin).
Series [12] has as its target Receptor-type tyrosine-protein kinase FLT3 (Homo sapiens) (UniProt P36888). Description: Inhibition of FLT3-mediated signalling pathway in human MV4-11 cells assessed as inhibition of MAPK phosphorylation at 50 nM by western blot analysis. The series is classed as cell-based. The following applies: TDE = time-dependent effect.
Series [13] concerns the target Receptor-type tyrosine-protein kinase FLT3 (Homo sapiens, UniProt P36888, ITD). The experiment in a line: Inhibition of FLT3-ITD mutant (unknown origin).
Series [14] has as its target T2, Receptor-type tyrosine-protein kinase FLT3 (Mus musculus). The experiment in a line: Inhibition of FLT3-mediated signalling pathway in mouse Ba/F3 FLT3-ITD cells assessed as inhibition of STAT5 phosphorylation at 50 nM by western blot analysis. The series is classed as cell-based.
Series [15] deals with Receptor-type tyrosine-protein kinase FLT3 (Homo sapiens) (UniProt P36888). The experiment in a line: Inhibition of FLT3-mediated signalling pathway in human MV4-11 cells assessed as inhibition of STAT5 phosphorylation at 50 nM by western blot analysis. Format: cell-based. The conditions noted are these: TDE = time-dependent effect.
The target of series [16] is T2, Receptor-type tyrosine-protein kinase FLT3 (Mus musculus). The experiment in a line: Inhibition of FLT3-mediated signalling pathway in mouse Ba/F3 FLT3-ITD cells assessed as inhibition of MAPK phosphorylation at 50 nM by western blot analysis. The series is classed as cell-based. The conditions noted are these: TDE = time-dependent effect.
In series [17] the target is Serine/threonine-protein kinase B-raf (Homo sapiens, UniProt P15056). The experiment in a line: Inhibition of BRAF (unknown origin).
Chain of Serine/threonine-protein kinase B-raf (P15056 whole entry): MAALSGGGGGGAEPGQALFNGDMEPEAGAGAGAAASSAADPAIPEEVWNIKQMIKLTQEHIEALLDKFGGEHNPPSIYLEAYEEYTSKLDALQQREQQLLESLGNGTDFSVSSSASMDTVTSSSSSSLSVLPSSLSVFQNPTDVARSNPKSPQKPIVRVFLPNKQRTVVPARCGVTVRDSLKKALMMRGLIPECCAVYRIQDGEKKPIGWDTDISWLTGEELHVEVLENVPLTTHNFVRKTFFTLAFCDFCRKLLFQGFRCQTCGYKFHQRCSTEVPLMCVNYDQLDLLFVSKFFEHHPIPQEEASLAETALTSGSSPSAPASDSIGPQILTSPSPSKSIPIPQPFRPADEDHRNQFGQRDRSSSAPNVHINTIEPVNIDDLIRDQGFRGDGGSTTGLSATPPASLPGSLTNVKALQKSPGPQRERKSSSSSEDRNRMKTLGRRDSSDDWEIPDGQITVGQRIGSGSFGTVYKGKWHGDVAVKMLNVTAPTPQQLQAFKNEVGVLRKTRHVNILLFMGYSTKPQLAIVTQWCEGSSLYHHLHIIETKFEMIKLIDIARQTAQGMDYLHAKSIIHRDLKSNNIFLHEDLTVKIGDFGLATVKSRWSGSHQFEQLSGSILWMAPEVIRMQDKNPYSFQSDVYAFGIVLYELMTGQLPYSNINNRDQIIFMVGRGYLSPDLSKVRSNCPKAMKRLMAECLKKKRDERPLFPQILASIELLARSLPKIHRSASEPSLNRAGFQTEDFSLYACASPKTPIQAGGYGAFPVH

Chain of Mast/stem cell growth factor receptor Kit (P10721 whole entry): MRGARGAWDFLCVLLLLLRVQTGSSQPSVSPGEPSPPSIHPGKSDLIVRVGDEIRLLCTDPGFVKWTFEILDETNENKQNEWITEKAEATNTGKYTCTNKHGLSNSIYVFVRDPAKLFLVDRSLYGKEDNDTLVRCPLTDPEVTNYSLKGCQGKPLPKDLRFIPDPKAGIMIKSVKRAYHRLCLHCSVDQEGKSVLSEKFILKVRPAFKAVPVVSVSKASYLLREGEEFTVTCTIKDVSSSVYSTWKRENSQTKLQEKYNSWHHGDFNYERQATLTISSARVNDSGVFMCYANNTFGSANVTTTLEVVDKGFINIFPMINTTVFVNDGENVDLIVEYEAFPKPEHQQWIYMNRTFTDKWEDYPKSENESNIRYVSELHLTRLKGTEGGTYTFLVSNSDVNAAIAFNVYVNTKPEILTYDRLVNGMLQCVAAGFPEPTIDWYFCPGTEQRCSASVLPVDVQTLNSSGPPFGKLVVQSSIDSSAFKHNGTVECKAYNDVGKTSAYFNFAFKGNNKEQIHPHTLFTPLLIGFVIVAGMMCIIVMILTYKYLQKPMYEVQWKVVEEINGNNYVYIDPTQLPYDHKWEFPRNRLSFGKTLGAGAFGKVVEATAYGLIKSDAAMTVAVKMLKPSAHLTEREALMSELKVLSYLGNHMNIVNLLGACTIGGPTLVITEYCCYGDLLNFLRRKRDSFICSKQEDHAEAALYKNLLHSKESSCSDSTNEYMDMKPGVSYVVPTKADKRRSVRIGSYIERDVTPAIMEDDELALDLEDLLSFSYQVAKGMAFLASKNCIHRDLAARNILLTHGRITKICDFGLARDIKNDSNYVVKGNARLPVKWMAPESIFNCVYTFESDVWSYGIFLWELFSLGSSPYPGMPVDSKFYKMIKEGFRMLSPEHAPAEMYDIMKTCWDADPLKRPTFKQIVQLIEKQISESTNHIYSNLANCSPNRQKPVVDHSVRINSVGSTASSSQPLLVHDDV
Chain of Fibroblast growth factor receptor 1 (P11362 whole entry): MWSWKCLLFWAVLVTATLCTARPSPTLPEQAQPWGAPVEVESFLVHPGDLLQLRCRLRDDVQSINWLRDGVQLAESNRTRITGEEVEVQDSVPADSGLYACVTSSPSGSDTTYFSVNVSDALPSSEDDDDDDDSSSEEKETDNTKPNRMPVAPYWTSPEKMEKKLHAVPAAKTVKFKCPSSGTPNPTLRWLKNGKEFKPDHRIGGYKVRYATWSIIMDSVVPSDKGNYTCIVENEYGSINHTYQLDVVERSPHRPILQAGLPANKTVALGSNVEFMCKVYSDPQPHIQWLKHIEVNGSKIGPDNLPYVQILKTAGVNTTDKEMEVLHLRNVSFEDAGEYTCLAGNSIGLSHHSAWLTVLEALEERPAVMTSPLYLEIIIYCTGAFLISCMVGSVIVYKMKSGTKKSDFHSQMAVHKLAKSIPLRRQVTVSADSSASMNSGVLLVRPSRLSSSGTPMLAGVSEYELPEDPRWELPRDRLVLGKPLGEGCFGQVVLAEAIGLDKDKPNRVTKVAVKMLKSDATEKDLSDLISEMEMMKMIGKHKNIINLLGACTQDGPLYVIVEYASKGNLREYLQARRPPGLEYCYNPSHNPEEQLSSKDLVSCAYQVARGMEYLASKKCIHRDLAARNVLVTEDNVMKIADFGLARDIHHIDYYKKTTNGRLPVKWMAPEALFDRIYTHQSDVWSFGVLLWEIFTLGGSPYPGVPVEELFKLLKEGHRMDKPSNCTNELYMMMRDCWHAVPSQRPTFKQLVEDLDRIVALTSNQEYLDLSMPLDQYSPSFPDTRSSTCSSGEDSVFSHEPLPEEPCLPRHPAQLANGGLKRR

As a reminder, the IC50 is the concentration that gives 50% inhibition. In the case of `COc1ccc(CNc2ccc3c(c2)ncn3-c2ccccc2)cc1OCCO`, in series [1], the half-maximal inhibitory concentration (IC50) at 72 h was greater than 400 nM. Besides, the IC50 in series [2] is greater than 50000 nM; in the series on MOLM-13, 78.2 nM; in the series with MV4-11, 197 nM; in series [3] it was 75.4 nM; in the series on HL-60 it was greater than 50000 nM.
Regarding `OCCOc1ccc(CNc2ccc3c(c2)ncn3-c2ccccc2)cc1OCCO`, in [1], the IC50 at 72 h was greater than 400 nM. Also, the IC50 in series [2] is greater than 50000 nM; in the series with MOLM-13 it was 69.8 nM; with MV4-11, 167 nM; in [3], 77.8 nM; with HL-60 it was greater than 50000 nM.
As for `COc1ccc(CNc2ccc3c(c2)ncn3-c2ccccc2)cc1OC`, the 50% inhibitory concentration (IC50) is 30 nM in series [4]; greater than 1000 nM in [7]; greater than 50000 nM in [2]; 113 nM in the series with MOLM-13; 451 nM in series [11]; 90 nM in series [13]. The concentration for half-maximal inhibition (IC50) in the series on MV4-11 is 189 nM; in series [3], 94.8 nM; with HL-60, greater than 50000 nM; in series [17], greater than 1000 nM. In [1], the concentration for half-maximal inhibition (IC50) at 72 h is greater than 400 nM. The inhibition entry in [5], in [8], in series [9] and in series [14] was “Active” throughout. Also, the Activity result with Monocyte is “Not Active”; in series [6], 10 nM; in series [10] it was 1 nM. Also, the inhibition entry in series [12], in series [15] and in [16] was “Tde” throughout.
In the case of `CNC(=O)c1cc(Oc2ccc(NC(=O)Nc3ccc(Cl)c(C(F)(F)F)c3)cc2)ccn1` [SORAFENIB], the concentration for half-maximal inhibition (IC50) (in series [2]; in the series on HL-60) was 500 nM throughout.
